Experimental findings from ChEMBL document CHEMBL1141974, “Inclusion complexes of N-sulfamoyloxazolidinones with beta-cyclodextrin” (Bioorg Med Chem Lett, 2005) are described below.

By logP is commonly meant the decadic logarithm of the partition coefficient of the neutral form, usually between octanol and water. Low readings indicate lower lipophilicity, high ones higher lipophilicity.

A short description of data set [1]: Relative hydrophobicity enhancement value obtained via beta-cyclodextrin complexation. Type of data set: ADME.
Data set [2] can be described thus: Partition coefficient (logP). In kind it is physicochemical. The note with it: octanol/water.
The nature of data set [3]: Partition coefficient (logP) (beta-cyclodextrin complex). The note with it: octanol/water. In kind it is physicochemical.

Molecules are shown by their SMILES.

Take `O=C1OCCN1S(=O)(=O)Nc1ccccc1`: in data set [1], the “delta Log P” value was 0.85. Further, the logP in data set [2] was 0.65; in data set [3], -0.2.
Consider `O=C1OCCN1S(=O)(=O)Nc1ccc([N+](=O)[O-])cc1`, for which the “delta Log P” value in data set [1] is 0.9. The figures for the logP in data set [2] and in data set [3] were 0.55 and -0.35, respectively.
The corresponding values for `Cc1ccc(NS(=O)(=O)N2CCOC2=O)cc1` are 1.01, 1.12 and 0.1.
The corresponding values for `O=C1OCCN1S(=O)(=O)Nc1ccc(Cl)cc1` are 0.8, 1.26 and 0.46.
The corresponding values for `COc1ccc(NS(=O)(=O)N2CCOC2=O)cc1` are 0.94, 0.77 and -0.17.
`CN(c1ccccc1)S(=O)(=O)N1CCOC1=O`: the “delta Log P” value in data set [1] is given as 0.78. The logP is 0.56 in data set [2] and -0.22 in data set [3].
